pIC50: −log10 of the molar value.
Target: T1, OX2 (Homo sapiens, UniProt O43614)
T1 sequence (O43614 1-444): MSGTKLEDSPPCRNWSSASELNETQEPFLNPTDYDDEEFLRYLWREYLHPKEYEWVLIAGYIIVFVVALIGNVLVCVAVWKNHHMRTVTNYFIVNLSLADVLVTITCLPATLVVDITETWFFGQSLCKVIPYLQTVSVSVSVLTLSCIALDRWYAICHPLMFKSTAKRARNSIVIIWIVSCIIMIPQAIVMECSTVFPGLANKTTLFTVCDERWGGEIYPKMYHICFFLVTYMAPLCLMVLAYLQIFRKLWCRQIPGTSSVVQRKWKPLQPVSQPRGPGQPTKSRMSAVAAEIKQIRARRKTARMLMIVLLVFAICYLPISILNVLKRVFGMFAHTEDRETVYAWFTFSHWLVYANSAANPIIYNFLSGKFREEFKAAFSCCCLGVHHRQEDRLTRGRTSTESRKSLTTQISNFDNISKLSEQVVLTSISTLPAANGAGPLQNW
Experiment: Measurement of orexin receptor-binding ability ([125I]-OX-A, cell membranes, OX2)
Set-up: expressed in transfected cells; host or cells: CHO cells (membrane preparation)
Conditions: OX2 (IC50) nM, membranes of recombinant CHO cells expressing OX2, 0.2 nM [125I]-OX-A
Procedure: 1. Measurement of Orexin Receptor-Binding Ability
The assay was carried out using a 96-well Wheat Germ Agglutinin Flash Plate (PerkinElmer). The volume in a single assay well was 100 ul, and the composition of the reaction solution was as follows:
25 mM HEPES (pH 7.5), 1 mM CaCl2, 4.5 mM MgCl2, 0.5% BSA (bovine serum albumin), 0.1% sodium azide, 0.05% Tween-20, and 0.2% DMSO.
Cell membranes were prepared from recombinant CHO cells that expressed OX2 or OX1. The cell membranes were used in an amount of 5 μg protein/assay. […] Finally, the radioactivity of each well was measured using a scintillation counter (TopCount, PerkinElmer).

Row | SMILES | IC50 [nM]
1 | Cc1ncc(OC[C@@]2(c3cccc(C#N)c3)C[C@H]2C(=O)Nc2ccc(F)cn2)c(C)n1 [Example 116] | 14
2 | Cc1ncc(OC[C@@]2(c3cccc(F)c3)C[C@H]2C(=O)Nc2cccc(F)c2)c(C)n1 [Example 83] | 14
3 | COc1cc([C@]2(COc3cnc(C)nc3C)C[C@H]2C(=O)Nc2ccc(F)cn2)ccc1F [Example 314] | 173
4 | Cc1ncc(OC[C@@]2(c3ccc(F)cc3)C[C@H]2C(=O)Nc2cccc(F)c2)c(C)n1 [Example 107] | 41
5 | COc1cccc([C@]2(COc3cnc(C)nc3C)C[C@H]2C(=O)Nc2ccc(F)cc2)c1 [Example 187] | 16

Same assay, conditions: membranes of recombinant CHO cells expressing OX2, 0.2 nM [125I]-OX-A; read-out: OX2 (IC50)

Row | SMILES | pIC50
6 | COc1cc([C@]2(COc3cnc(C)nc3C)C[C@H]2C(=O)Nc2ccc(F)cc2)ccc1F [Example 315] | 6.68
7 | COCCc1nc(C)ncc1OC[C@@]1(c2cccc(F)c2)C[C@H]1C(=O)Nc1ccc(F)cc1 [Example 230] | 7.80
8 | CCc1nc(C)ncc1OC[C@@]1(c2ccccc2)C[C@H]1C(=O)Nc1ccc(F)cc1 [Example 124] | 7.51
9 | CCc1nc(C)ncc1OC[C@@]1(c2ccc(F)cc2)C[C@H]1C(=O)Nc1ccc(F)cc1 [Example 250] | 7.85
10 | Cc1ncc(OC[C@@]2(c3cc(F)cc(F)c3)C[C@H]2c2nc3ncccc3[nH]2)c(C)n1 [Example 308] | 7.51
11 | Cc1ncc(OC[C@@]2(c3ccccc3)C[C@H]2C(=O)Nc2ccnc(C(F)(F)F)c2)c(C)n1 [Example 44] | 7.59
12 | COCc1nc(C)ncc1OC[C@@]1(c2ccccc2)C[C@H]1C(=O)Nc1ccc(F)cc1 [Example 149, (1R,2S)-N-(4-fluorophenyl)-2-{[(4-methoxymethyl-2-methylpyrimidin-5-yl)oxy]methyl}-2-phenylcyclopropanecarboxamide] | 8.00
13 | COc1cc(F)cc(C2(COc3cnc(C)nc3C)CC2C(=O)Nc2ccccn2)c1 (stereo not shown) [Example 251] | 7.52
14 | COc1cc(F)cc(C2(COc3cnc(C)nc3C)CC2C(=O)Nc2ccc(C#N)cn2)c1 (stereo not shown) [Example 253] | 7.39
15 | COCc1nc(C)ncc1OC[C@@]1(c2ccccc2)C[C@H]1C(=O)Nc1ccc(C(F)(F)F)cn1 [Example 144] | 7.92
16 | CCc1nc(C)ncc1OC[C@@]1(c2cccc(F)c2)C[C@H]1c1nc2cnccc2[nH]1 [Example 309] | 8.00
17 | Cc1ncc(OC[C@@]2(c3cc(F)cc(F)c3)C[C@H]2c2nc3ncc(Cl)cc3[nH]2)c(C)n1 [Example 307] | 7.48
18 | COCc1nc(C)ncc1OC[C@@]1(c2cc(F)cc(OC)c2)C[C@H]1C(=O)Nc1ccc(F)cn1 [Example 233, (1R,2S)-2-(3-fluoro-5-methoxyphenyl)-N-(5-fluoropyridin-2-yl)-2-[(4-methoxymethyl-2-methylpyrimidin-5-yl)oxymethyl]cyclopropanecarboxamide] | 8.22
19 | COCCc1nc(C)ncc1OC[C@@]1(c2cccc(F)c2)C[C@H]1C(=O)Nc1ccccn1 [Example 228] | 7.35
20 | COCc1nc(C)ncc1OC[C@@]1(c2cc(F)cc(OC)c2)C[C@H]1C(=O)Nc1ccccn1 [Example 235, (1R,2S)-2-(3-fluoro-5-methoxyphenyl)-2-[(4-methoxymethyl-2-methylpyrimidin-5-yl)oxymethyl]-N-(pyridin-2-yl)cyclopropanecarboxamide] | 8.22
21 | COc1cc([C@]2(COc3cnc(C)nc3C)C[C@H]2C(=O)Nc2cc(C)c(F)cn2)ccc1F [Example 258] | < 7.22
22 | COc1cc([C@]2(COc3cnc(C)nc3C)C[C@H]2C(=O)Nc2ccc(Cl)cn2)ccc1F [Example 257] | 7.08
23 | COCc1nc(C)ncc1OC[C@@]1(c2ccccc2)C[C@H]1C(=O)Nc1cc(Cl)ccn1 [Example 143] | 7.85
24 | Cc1ncc(OC[C@@]2(c3cccc(C#N)c3)C[C@H]2C(=O)Nc2ccc(F)cc2)c(C)n1 [Example 115] | 7.68
25 | COc1cc(F)cc(C2(COc3cnc(C)nc3C)CC2C(=O)Nc2ccc(F)cc2)c1 (stereo not shown) [Example 252] | 7.74
26 | COc1cc([C@]2(COc3cnc(C)nc3C)C[C@H]2C(=O)Nc2ccccn2)ccc1F [Example 259] | < 7.22
27 | COc1cc(F)cc([C@]2(COc3cnc(C)nc3C)C[C@H]2C(=O)Nc2ccc(Cl)cn2)c1 [Example 255] | 7.57
28 | CCc1nc(C)ncc1OC[C@@]1(c2ccccc2)C[C@H]1C(=O)Nc1cncc(OC)c1 [Example 123] | 7.54
29 | COc1cccc([C@]2(COc3cnc(C)nc3C)C[C@H]2C(=O)Nc2ccccn2)c1 [Example 188] | 7.21
30 | Cc1ncc(OC[C@@]2(c3ccccc3)C[C@H]2c2nc3cnccc3[nH]2)c(C)n1 [Example 304] | 7.05

Second part, the compound after the results:

Row | pIC50 | SMILES
31 | 7.47 | COCc1nc(C)ncc1OCC1(c2cccc(Cl)c2)CC1C(=O)Nc1ccc(Cl)cn1 (stereo not shown) [Example 223]
32 | 8.15 | COCc1nc(C)ncc1OC[C@@]1(c2cccc(F)c2)C[C@H]1C(=O)Nc1cc(F)ccc1F [Example 197, (1R,2S)-N-(2,5-difluorophenyl)-2-(3-fluorophenyl)-2-{[(4-methoxymethyl-2-methylpyrimidin-5-yl)oxy]methyl}cyclopropanecarboxamide]
33 | 7.82 | COCc1nc(C)ncc1OC[C@@]1(c2ccc(F)c(OC)c2)C[C@H]1C(=O)Nc1ccc(F)c(F)c1 [Example 238]
34 | 8.15 | COCc1nc(C)ncc1OC[C@@]1(c2cc(F)cc(OC)c2)C[C@H]1C(=O)Nc1ccc(F)cc1 [Example 231, (1R,2S)-2-(3-fluoro-5-methoxyphenyl)-N-(4-fluorophenyl)-2-{[(4-methoxymethyl-2-methylpyrimidin-5-yl)oxy]methyl}cyclopropanecarboxamide]
35 | 7.43 | COCc1nc(C)ncc1OC[C@@]1(c2ccccc2)C[C@H]1C(=O)Nc1ccc(F)cc1F [Example 146]
36 | 7.68 | COCc1nc(C)ncc1OC[C@@]1(c2cc(F)cc(F)c2)C[C@H]1C(=O)Nc1cc(C)c(F)cn1 [Example 220]
37 | 7.85 | COCc1nc(C)ncc1OCC1(c2cccc(Cl)c2)CC1C(=O)Nc1ccc(C#N)cn1 (stereo not shown) [Example 227]
38 | 8.15 | COCc1nc(C)ncc1OC[C@@]1(c2cccc(Cl)c2)C[C@H]1C(=O)Nc1cc(C)c(F)cn1 [Example 226, (1R,2S)-2-(3-chlorophenyl)-N-(5-fluoro-4-methylpyridin-2-yl)-2-{[(4-methoxymethyl-2-methylpyrimidin-5-yl)oxy]methyl}cyclopropanecarboxamide]
39 | < 7.22 | COCc1nc(C)ncc1OC[C@@]1(c2ccc(F)cc2)C[C@H]1C(=O)Nc1cc(F)ccc1F [Example 210]
40 | 7.32 | COCc1nc(C)ncc1OC[C@@]1(c2ccc(F)cc2)C[C@H]1C(=O)Nc1ccc(F)cc1F [Example 209]
41 | 7.16 | COCc1nc(C)ncc1OC[C@@]1(c2ccccc2)C[C@H]1C(=O)Nc1cc(F)ccc1F [Example 147]
42 | 7.55 | Cc1ncc(OC[C@@]2(c3ccc(F)c(F)c3)C[C@H]2C(=O)Nc2cc(F)ccc2F)c(C)n1 [Example 172]
43 | 7.82 | Cc1ncc(OC[C@@]2(c3cc(F)cc(F)c3)C[C@H]2C(=O)Nc2cc(F)ccc2F)c(C)n1 [Example 136]
44 | 8.15 | COCc1nc(C)ncc1OC[C@@]1(c2ccc(F)c(F)c2)C[C@H]1C(=O)Nc1ccc(F)cc1F [Example 216, (1R,2S)-N-(2,4-difluorophenyl)-2-(3,4-difluorophenyl)-2-{[(4-methoxymethyl-2-methylpyrimidin-5-yl)oxy]methyl}cyclopropanecarboxamide]
45 | 7.70 | COCc1nc(C)ncc1OC[C@@]1(c2ccccc2)C[C@H]1C(=O)Nc1cccc(F)c1 [Example 148]
46 | 7.92 | COCc1nc(C)ncc1OC[C@@]1(c2ccc(F)c(F)c2)C[C@H]1C(=O)Nc1cc(F)ccc1F [Example 215]
47 | 7.68 | COCc1nc(C)ncc1OC[C@@]1(c2ccc(F)c(F)c2)C[C@H]1C(=O)Nc1cccc(F)c1F [Example 217]
48 | 8.15 | Cc1ncc(OC[C@@]2(c3ccc(F)c(F)c3)C[C@H]2C(=O)Nc2ccc(F)c(F)c2)c(C)n1 [Example 170, (1R,2S)-N,2-bis(3,4-difluorophenyl)-2-{[(2,4-dimethylpyrimidin-5-yl)oxy]methyl}cyclopropanecarboxamide]
49 | 7.96 | COCc1nc(C)ncc1OC[C@@]1(c2ccc(F)cc2)C[C@H]1C(=O)Nc1cccc(F)c1 [Example 208]
50 | 8.00 | COCc1nc(C)ncc1OC[C@@]1(c2ccccc2)C[C@H]1C(=O)Nc1ccc(F)c(F)c1 [Example 150, (1R,2S)-N-(3,4-difluorophenyl)-2-{[(4-methoxymethyl-2-methylpyrimidin-5-yl)oxy]methyl}-2-phenylcyclopropanecarboxamide]
51 | 7.57 | COCc1nc(C)ncc1OC[C@@]1(c2ccc(F)cc2)C[C@H]1C(=O)Nc1ccccn1 [Example 206]
52 | 7.51 | COCc1nc(C)ncc1OC[C@@]1(c2ccc(F)c(OC)c2)C[C@H]1C(=O)Nc1ccc(F)cc1 [Example 237]

Reference: patent publication US8268848B2, “Cyclopropane compound” (Eisai R&D Management Co., Ltd., priority 2010, dated 2012)
